According to PMC4536990, “Efficacy of the antimicrobial peptide TP4 against Helicobacter pylori infection: in vitro membrane perturbation via micellization and in vivo suppression of host immune responses in a mouse model” (Oncotarget, 2015):
Where a SMILES comes first, the peptide text is derived from it.

Legend:
H. pylori CI-HC-028 = test: Time-dependent killing of multidrug resistant clinical isolate; assay type: cell-based, Helicobacter pylori; conditions: CI-HC-028, at MIC
Method: Control peptide and H. pylori alone were used as controls. The cultures were monitored for 24 h, and aliquots were taken at 1, 3, 6, 12, and 24 h for bacterial enumeration. The data are means ± SEM. […] Approximately, 1 × 10^5 cells were incubated for 1 h, and then incubated with the MIC of TP4, amoxicillin, metronidazole, or clarithromycin (AMOX, METZ, and CLRN, respectively). The cultures were monitored for 24 h, and aliquots taken at 1, 3, 6, 12, and 24 h to determine surviving c.f.u. The data are means ± SEM
Overnight cultures of H. pylori were scraped and adjusted to OD 0.05, and 1 ml/tube inocula were prepared with BHI broth. Solutions of TP4 or clinical antibiotics were prepared with concentrations corresponding to their respective MIC, and PBS was used as a control. The tubes were incubated without shaking at 37°C under microaerophilic conditions, and sample aliquots were taken at 0, 1, 3, 6, 12, and 24 hr. The samples were serially diluted, and appropriate dilutions were plated in triplicate onto blood agar plates for bacterial counts. The results were expressed as mean log (c.f.u. mL^−1) with standard error.

H. pylori [1] = test: Induction of drug resistance by sub-inhibitory passaging (in vitro / in vivo passage); assay type: cell-based, Helicobacter pylori; conditions: sub-inhibitory doses, 10 serial passages
Method: (§1) Animals were sacrificed at each passage, and the MIC of TP4, amoxicillin, metronidazole, and clarithromycin were recorded for 10 serial passages. Passage points in the curves are means ± SEM. (MICs: standard MIC value; MICp: passage-induced MIC). (B) In vitro dose-OD fall kinetics were examined for TP4 alone and in combination with amoxicillin, metronidazole, or clarithromycin. […] The data shown are means ± SEM of two independent experiments
The drug resistance of bacteria to TP4 and clinical antibiotics was determined by in vitro culturing of H. pylori in sub-inhibitory concentrations of TP4 and antibiotics, followed by repeated in vivo passaging. H. pylori was administered to C3H/HeN mice and allowed to colonize the gut; subsequently pure colonies of H. pylori were isolated on EYE selective media. This step was repeated for 10 passages. During each passage, the MICs of TP4 and the conventional antibiotics were determined. All procedures, care, and handling of mice were approved by the laboratory animal ethics committee of National Taiwan Ocean University.

[2] = test system: metronidazole- and clarithromycin-resistant H. pylori strains; test: Synergy of TP4 with antibiotics, in vitro dose-OD fall kinetics; assay type: cell-based, Helicobacter pylori; conditions: TP4 plus antibiotic
Method: as §1
Combination therapy often enhances antibiotic efficacy and mitigates the frequency at which drug resistance emerges. To determine the suitability of TP4 for combination therapy, we examined in vitro dose-OD fall kinetics of TP4 in combination with AMOX, CLRN, or METZ antibiotics; these three antibiotics are traditionally used as the first line of defense against H. pylori.

H. pylori outer membrane = test: NPN uptake membrane perturbation assay; assay type: cell-based, Helicobacter pylori; conditions: 6 h incubation, 22μg mL−1 NPN
Method: Figure 3 TP4 induces membrane permeation of H. pylori TP4 rapidly permeabilizes the H. pylori outer membrane in a dose-dependent manner. Membrane permeabilization was examined by measuring fluorescence due to uptake of 1-N-phenyl-naphthylamine (NPN). Approximately 5 × 10^6 H. pylori (Hp) cells were cultured in the presence of TP4 or amoxicillin for 6 h. Bacterial cells alone, or cells incubated with NPN and control peptide, were used as negative controls. NPN fluorescence intensity was recorded as a correlate of membrane permeation. (B) Zeta-potential (ζ) of H. pylori in the presence/absence of TP4. Striped bars: H. pylori grown in blood agar plates; white bar: liquid culture. The data shown are means ± SEM of two independent experiments
The NPN membrane permeation assay was performed as described previously. Briefly, a starter culture of H. pylori was grown overnight to 0.05 OD. The adjusted culture was aliquoted into different tubes with or without TP4/amoxicillin, and incubated at 37°C for 360 minutes under microaerophilic conditions. […] NPN fluorescence intensity was recorded using a Synergy HT (BioTek, U.S.A) fluorescence ELISA reader, and correlated to membrane potential and permeation. Experiments were performed in triplicate, and the results are expressed as means with standard error.

H. pylori [3] = test: Transmission electron microscopy of H. pylori morphology; assay type: cell-based, Helicobacter pylori; conditions: 1x MIC, 2 hr
Source text: Figure 4 Electron micrographs reveal that TP4 causes membrane disruption in H. pylori via micellization Approximately 6 × 10^7 H. pylori cells were exposed to PBS (A, D), 1x MIC amoxicillin (B, E), or 1x MIC TP4 peptide (C, F) for 2 hr. Next, thin sections were examined under a transmission electron microscope (TEM) at low (1,100X; A-C) or high (5,500X; D-F) magnification. […] (E) Amoxicillin-treated cells retained intact membranes, but the periplasmic space was swollen in some locations.
Transmission electron microscopy (TEM) was used to examine the mechanism of TP4 action on H. pylori, overall cell morphology, TP4 translocation into H. pylori, and binding of TP4 to internal constituents. H. pylori overnight cultures from BHI-blood agar plates were collected, and 0.1 OD inocula were incubated with TP4, Amoxicillin, and/or PBS (PBS only: negative control). Following drug exposure, H. pylori cells were collected and successively washed twice in PBS by centrifugation and resuspension. The cells were then fixed and processed for TEM using previously described methods. […] Each grid was examined under the same settings. Images were recorded with a 4MP SPOT Insight charge-coupled-device (CCD) camera.

H. pylori [4] = assay type: cell-based, Helicobacter pylori; conditions: 24 h
Method: Frozen cultures were streaked onto BHI agar with 10% sheep blood, and incubated for 24 hr under microaerophilic conditions. H. pylori cells undergoing exponential growth were suspended in sterile phosphate-buffered saline (PBS), and adjusted to 0.05 OD using BHI broth; the resulting inoculum was dispensed onto a microtitre plate. Peptide TP4 was prepared at various concentrations (0.04 to 50 μg mL^−1) using PBS. Antibiotic resistant clinical isolate CI-HC-028 and three reference strains were used for susceptibility testing. All plates were incubated under microaerophilic conditions at 37°C overnight. The MIC was defined as the lowest concentration of the drug at which there was no visible growth. For quality control and comparative analyses, we examined the susceptibility of all four H. pylori strains to the antibiotics amoxicillin, clarithromycin, and metronidazole (Sigma Chemical Co., St. Louis, MO).

C3H/HeN mice [5] = test: Acute oral toxicity; assay type: in vivo; conditions: single oral dose 125 mg/kg, n=6, observed 24 hours
Method: Oral toxicity: Acute oral toxicity was assessed in C3H/HeN mice with 6 animals per group, by single oral administration of TP4 (125 mg/kg). […] The mortality rate and clinical signs were recorded. Sub-acute oral toxicity was assessed by administering 600 μg dose/day for 14 days. During dose administration, the animals were observed every day for any signs of toxicity. After the treatment period, the animals were kept under observation for 14 days. The morbidity, mortality, and other clinical signs were recorded and assessed. Dermal Toxicity was assessed by topical application of TP4 at 10 times the effective dose to skin at the dorsal side of mice. After administration, the animals were kept under observation for a minimum of 48 h. Clinical signs were noted if the animals were in the morbid stage or presented with any abnormalities. Eye irritation test in New Zealand white rabbits: Healthy young adult rabbits were used in the experiment. Eyes were treated with TP4, PBS (vehicle control), or 0.1% SDS (positive control). A repeated dose of 1 mg/kg was administered every day for 7 days. During the treatment period, the eyes were examined on days 1, 3, 5, and 7, and allowed to recover until day 14. Clinical signs were recorded during the test period, and grades were assigned for ocular reactions observed during each examination. […]

C3H/HeN mice [6] = test: Sub-acute oral toxicity; assay type: in vivo; conditions: three-fold therapeutic dose (600 μg dose/day) orally for 14 days, observed days 1 to 28, n=6
Method: Sub-acute oral toxicity: Three-fold therapeutic doses were orally administered to mice for 14 days.
Oral toxicity: Acute oral toxicity was assessed in C3H/HeN mice with 6 animals per group, by single oral administration of TP4 (125 mg/kg). After dose administration, the animals were kept under observation for a minimum of 48 hr. The mortality rate and clinical signs were recorded. Sub-acute oral toxicity was assessed by administering 600 μg dose/day for 14 days. During dose administration, the animals were observed every day for any signs of toxicity. After the treatment period, the animals were kept under observation for 14 days. The morbidity, mortality, and other clinical signs were recorded and assessed. Dermal Toxicity was assessed by topical application of TP4 at 10 times the effective dose to skin at the dorsal side of mice. After administration, the animals were kept under observation for a minimum of 48 h. Clinical signs were noted if the animals were in the morbid stage or presented with any abnormalities. Eye irritation test in New Zealand white rabbits: Healthy young adult rabbits were used in the experiment. Eyes were treated with TP4, PBS (vehicle control), or 0.1% SDS (positive control). […] Clinical signs were recorded during the test period, and grades were assigned for ocular reactions observed during each examination. […]

C3H/HeN mice [7] = test: Dermal toxicity; assay type: in vivo
Method: (§2) Figure 11 TP4 toxicity safety evaluations in New Zealand albino rabbits and C3H/HeN mice (A) Eye irritation test: Ocular appearances of controls, and rabbits treated with TP4 or SDS for 7 days. […] (B) Dermal toxicity: appearances of the skin of mice treated with TP4 at 48 hr post-exposure.
(§3) Oral toxicity: Acute oral toxicity was assessed in C3H/HeN mice with 6 animals per group, by single oral administration of TP4 (125 mg/kg). After dose administration, the animals were kept under observation for a minimum of 48 hr. The mortality rate and clinical signs were recorded. Sub-acute oral toxicity was assessed by administering 600 μg dose/day for 14 days. During dose administration, the animals were observed every day for any signs of toxicity. After the treatment period, the animals were kept under observation for 14 days. The morbidity, mortality, and other clinical signs were recorded and assessed. Dermal Toxicity was assessed by topical application of TP4 at 10 times the effective dose to skin at the dorsal side of mice. After administration, the animals were kept under observation for a minimum of 48 h. Clinical signs were noted if the animals were in the morbid stage or presented with any abnormalities. Eye irritation test in New Zealand white rabbits: Healthy young adult rabbits were used in the experiment. Eyes were treated with TP4, PBS (vehicle control), or 0.1% SDS (positive control). A repeated dose of 1 mg/kg was administered every day for 7 days. During the treatment period, the eyes were examined on days 1, 3, 5, and 7, and allowed to recover until day 14. Clinical signs were recorded during the test period, and grades were assigned for ocular reactions observed during each examination. All procedures, care, and handling of rabbits were approved by the laboratory animal ethics committee of National Taiwan Ocean University.

[8] = test system: New Zealand white rabbits; test: Eye irritation test in rabbits (OECD 405); assay type: in vivo; conditions: for Abnormality iris grade / Chemosis grade / Conjunctivae Redness grade / Corneal opacity grade: OECD 405 grading
Method: as §2, §3

[9] = cited from earlier work
Source text: (§4) A more complete understanding of how these short amphipathic cationic AMPs bring about bacterial cell death and host immunomodulation is needed for further optimization and development for clinical applications.

[10] = test system: human and mouse cell lines; conditions: cited from earlier work
Source text: as §4

CC1(C)S[C@@H]2[C@H](NC(=O)[C@H](N)c3ccc(O)cc3)C(=O)N2[C@H]1C(=O)O [amoxicillin]
killing within 24 hr (H. pylori CI-HC-028): 90%
drug resistance index MICp/MICs (H. pylori [1]): increased slightly after passage 6, and remained constant thereafter
reduction of the MIC of the antibiotic in combination with TP4 [2]: one-fourth
NPN fluorescence intensity (membrane permeabilization) (H. pylori outer membrane): slight increase in fluorescence intensity at higher doses
membrane morphology by TEM (H. pylori [3]): loose outer membranes

CC[C@H](C)[C@H](NC(=O)[C@H](C)NC(=O)[C@H](CCCCN)NC(=O)CNC(=O)[C@H](C)NC(=O)[C@H](CO)NC(=O)[C@H](Cc1ccccc1)NC(=O)[C@H](CC(C)C)NC(=O)CNC(=O)CNC(=O)[C@@H](NC(=O)[C@@H](NC(=O)[C@H](Cc1c[nH]cn1)NC(=O)[C@H](Cc1c[nH]cn1)NC(=O)[C@@H](NC(=O)[C@@H](N)Cc1ccccc1)[C@@H](C)CC)[C@@H](C)CC)[C@@H](C)CC)C(=O)N[C@@H](Cc1c[nH]cn1)C(=O)N[C@@H](CCCNC(=N)N)C(=O)N[C@@H](CC(C)C)C(=O)N[C@H](C(=O)N[C@@H](CCCNC(=N)N)C(=O)N[C@@H](CCCNC(=N)N)C(=O)N[C@@H](CCCNC(=N)N)C(=O)N[C@@H](CCCNC(=N)N)C(=O)N[C@@H](CCCNC(=N)N)C(N)=O)[C@@H](C)CC [TP4] (H-FIHHIIGGLFSAGKAIHRLIRRRRR-NH2)
MIC (H. pylori [4]): 1.5 to 3 µg/mL
acute oral toxicity, clinical signs and vital organs (C3H/HeN mice [5]): did not exhibit any abnormal clinical signs
sub-acute oral toxicity, clinical signs (C3H/HeN mice [6]): did not induce clinical complications in mice
skin appearance, lesions (C3H/HeN mice [7]; 48 hr post-exposure, after residue removal, 125 mg/kg TP4 or 20% SDS, n=12 per group): No obvious lesions
dermal toxicity, mortality or damaging effects (C3H/HeN mice [7]; topical, 10 times the effective dose, 14-day observation): did not result in mortality or damaging effects
Abnormality iris grade ([8]; Day 1): 0
Chemosis grade ([8]; Day 1): 0
Conjunctivae Redness grade ([8]; Day 1): 0
Corneal opacity grade ([8]; Day 1, rabbit eye, daily for 7 days (TP4 1 mg/kg; SDS 0.1%)): 0
Abnormality iris grade ([8]; Day 3): 0
Chemosis grade ([8]; Day 3): 0.1
Conjunctivae Redness grade ([8]; Day 3): 0
Corneal opacity grade ([8]; Day 3): 0
Abnormality iris grade ([8]; Day 5): 0
Chemosis grade ([8]; Day 5): 0.1
Conjunctivae Redness grade ([8]; Day 5): 0.5
Corneal opacity grade ([8]; Day 5): 0.1
Abnormality iris grade ([8]; Day 7): 0
Chemosis grade ([8]; Day 7): 0.1
Conjunctivae Redness grade ([8]; Day 7): 0
Corneal opacity grade ([8]; Day 7): 0.3
Abnormality iris grade ([8]; Recovery, Day 14): 0
Chemosis grade ([8]; Recovery, Day 14): 0
Conjunctivae Redness grade ([8]; Recovery, Day 14): 0
Corneal opacity grade ([8]; Recovery, Day 14): 0
ocular appearance ([8]; rabbits treated for 7 days, observed daily): no ocular lesions were detected
hemolytic activity [9]: low hemolytic activity
toxicity against cell lines [10]: low toxicity against human and mouse cell lines
